What was measured:
Assay type in all cases: cell-based, human
[1] = system: COPD epithelium-microvascular endothelium co-culture; experiment: Inflammatory cytokine secretion from the microvascular channel of COPD co-culture devices (Multiplex Cytokine Detection System); settings: budesonide 10 nM or PFI-2 500 nM, poly (I:C) 10 μg/ml 6 h
Excerpt: (§1) FIGS. 28A-28C show capability of determining drug efficacy on neutrophil capture and adhesion and inflammation suppression in a small airway mimicking device according to one or more embodiments described herein. (FIG. 28A) Representative immunofluorescence images showing adhesion of recruited neutrophils under three different conditions: (left) no drug; (middle) budesonide; (right) PFI-2. Neutrophils were stained with Hoechst immediately prior to experiment to allow visualization and quantification. (FIG. 28B) Bar graph showing percentage change in neutrophil adhesion to activated endothelium as imaged in FIG. 28A. (n=3 different donors per condition; 7-8 devices per condition from 4 independent experiments; 4-5 distinct fields per chip). (FIG. 28C) A set of bar graphs showing levels of different cytokine secretion modulated by the indicated drug or under no treatment. Cytokines measured include: neutrophil-attractant IL-8, GROα, and GM-CSF, monocyte-chemoattractant MCP-1, and acute inflammation associated cytokine IL-6. (n=3 donors per condition).
COPD epithelium-microvascular endothelium co-culture devices were established, e.g., as described in Example 1 or 2, and then were either treated with the corticosteroid drug budesonide (10 nM) or PFI-2 (a bromodomain-containing protein 4 (BRD4) inhibitor drug; 500 nM), or left untreated. The COPD epithelium was then stimulated with poly (I:C) 10 μg/ml via the “airway lumen” channel for 6 h and then examined for adhesion of recruited neutrophils. Neutrophils were stained with Hoechst immediately prior to experiment to allow visualization and quantification. Representative immunofluorescence images of the three conditions are illustrated in FIG. 28A.
To compare the ability of budesonide and PFI-2 in suppressing inflammatory cytokine secretion, secreted cytokines from the “microvascular” channel of the co-culture devices were also analyzed by Multiplex Cytokine Detection System prior to neutrophil recruitment assay.

[2] = system: neutrophil adhesion to activated endothelium; experiment: Neutrophil capture and adhesion in COPD epithelium-microvascular endothelium co-culture device after poly (I:C); settings: budesonide 10 nM or PFI-2 500 nM; poly (I:C) 10 μg/ml for 6 h; compared with no treatment
Excerpt: as §1, with “(FIG. 28C) A set of bar graphs showing levels of different cytokine secretion modulated by the indicated drug or under no treatment.” left out, “(n=3 donors per condition).” left out
COPD epithelium-microvascular endothelium co-culture devices were established, e.g., as described in Example 1 or 2, and then were either treated with the corticosteroid drug budesonide (10 nM) or PFI-2 (a bromodomain-containing protein 4 (BRD4) inhibitor drug; 500 nM), or left untreated. […] Neutrophils were stained with Hoechst immediately prior to experiment to allow visualization and quantification. […]
Effects of budesonide and PFI-2 on neutrophil adhesion were quantified.

[3] = system: differentiated airway cells; experiment: IL-13 induced asthma-like phenotype in the airway-on-a-chip
Excerpt: FIGS. 30A-30D show induction of asthma-like phenotype in the airway-on-a-chip for assessment of drug efficacy. […] FIG. 30B is a bar graph showing quantification of globet cell coverage based on the fluorescent images (representative images shown in FIG. 30A). FIG. 30C is a set of bar graphs showing secretion of G-CSF and GM-CSF by IL-13 stimulated cells, as compared to cells without IL-13 stimulation. FIG. 30D is a bar graph showing cilia beating frequency under indicated conditions. In FIGS. 30B-30D, the “airway” devices were also used to assess the drug efficacy of Tofacitinib, a JAK inhibitor, by treating the IL-13 stimulated cells with Tofacitinib, and measuring each phenotype as described above accordingly.
To develop asthma-like phenotype in the devices described herein, airway cells were differentiated in the devices, e.g., using the methods as described in Example 1 or 2, and then stimulated with IL-13 to induce asthma-like phenotype in the devices. IL-13 is a protein secreted by immune cells which is found in high quantities in lungs of asthmatics.
The “airway” devices were then used to assess the drug efficacy of Tofacitinib, a JAK inhibitor.

[4] = system: COPD and healthy differentiated epithelial cells; experiment: Cytokine response of differentiated COPD and healthy epithelia to TLR stimulation in the device; settings: for IL8 secretion: LPS stimulation; for M-CSF secretion: poly(I:C) stimulation
Excerpt: FIGS. 26A-26E are data graphs showing COPD disease phenotype can be established in the device according to one or more embodiments described herein. […] FIG. 26B compares IL-8 secretion between COPD and healthy epithelia after LPS (lipopolysaccharides) stimulation. FIG. 26C compares M-CSF secretion between COPD and healthy epithelia after […] (polyinosinic:polycytidylic acid) stimulation.
It was next sought to determine cytokine production in response to TLR stimulation. Cytokines are molecules that are involved in inflammation and their generation can be modulated by TLR activation. After the well-differentiated (i.e. mucociliary) epithelium (normal and COPD-derived) was stimulated with lipopolysaccharides (LPS), a qPCR was performed on the cells to compare inflammatory response between COPD and healthy epithelia in the devices described herein. LPS is a bacterial derived molecule that stimulates TLR4. […] This is in line with clinical reports and other ex vivo observations that COPD patients are hyper-reactive inflammation-wise and produce more pro-inflammatory mediators. […] M-CSF is a cytokine that promotes survival and differentiations of a subset of immune cells, e.g., macrophages, in our bodies. This agrees with general observations that in the lungs of COPD patients there is generally an increased number of macrophages as compared to the number of macrophages in healthy individuals.

[5] = system: differentiated airway epithelial cells; experiment: Infection response of differentiated airway epithelial cells to TLR-3 ligand poly I:C in the device
Description: FIGS. 11A-11D illustrate an exemplary method of evaluating an infection response of differentiated small airway epithelial cells and optionally immune cells in a device in accordance with an embodiment, and experimental data resulting therefrom. FIG. 11A is a schematic diagram illustrating an example method to evaluate an infection response in the device. Primary small airway epithelial cells were seeded on the membrane in the mesochannel (an “airway lumen” channel) for differentiation into ciliated and/or mucus-secreting cells following the differentiation method as described in FIG. 5A. Upon differentiation of the airway epithelial cells, another surface of the membrane (facing the microchannel, the “blood vessel” channel) could be seeded with or without endothelial cells. The differentiated cells in the mesochannel were then challenged with a toll-like receptor 3 (TLR-3) ligand poly I:C to induce inflammation. A fluid comprising immune cells (e.g., human monocytes) was introduced into the “blood vessel” channel, either with a static fluid or a flowing fluid, to determine effects of TLR-3-induced inflammation on cytokine/chemokine profiles of the differentiated cells and/or recruitment of immune cells (e.g., monocytes and/or neutrophils). […] FIG. 11C is a set of data showing quantification of monocytes attached to the TLR-3 activated differentiated epithelial cells in the device and the associated fluorescent images. FIG. 11D is a graph showing gene expression of differentiated epithelial cells after treatment with or without a TLR-3 ligand poly I:C.
By way of example only, FIGS. 11A-11D illustrate the capability of using one embodiment of the device described herein to model a bacterial/viral infection. […] Cytokines or chemokines secreted into the fluid flowing in the mesochannel and/or microchannel can be measured by collecting from the outlet an aliquot of the fluid exiting the mesochannel and/or microchannel, which is then subjected to cytokine/chemokine expression analyses.

[6] = system: pulmonary microvascular endothelial cells; experiment: Cell adhesion molecule gene expression in endothelial cells after apical poly (I:C) challenge of co-cultured epithelium; settings: apical poly (I:C) 10 μg/ml for 6 h, compared to cells without challenge
Excerpt: FIGS. 27A-27C show establishment of a three-cell type microfluidic co-culture system comprising ciliated epithelium, endothelium and circulating leukocytes. (FIG. 27A) Left panel: a 3D cross-sectional diagram of one embodiment of the devices described herein used to re-create post-capillary venules (major sites of leukocyte recruitment and adhesion in vivo). Middle panel: a schematic diagram showing a 3-cell type co-culture of epithelium, endothelium and neutrophils (all primary cells). Right panel: vertical immunofluorescence cross-section of ciliated epithelium and endothelium bilayer on-device. Ciliated cells were labeled for β-tubulin IV and endothelial cells were stained with anti-CD31/PECAM-1 antibody. Nuclei were counterstained with DAPI. Scale bar, 20 μm. […] Following initial attachment the neutrophil crawled over apical surface of activated endothelium and then firmly adhered (times indicated in seconds). Neutrophils and endothelial cells had been live stained with CellTracker Red and Calcein AM, respectively. (FIG. 27C) Bar graphs showing E-selectin and VCAM1 mRNA levels in endothelia cells upon treatment of differentiated epithelial cells with or without poly (I:C). (3 devices per condition were used) […]

[7] = drug treatment of IL-13 stimulated cultures
[8] = IL-13 stimulation compared to cells without IL-13 stimulation
[9] = healthy donor and COPD epithelial cells, poly (I:C) stimulation

Cl.O=C([C@@H](Cc1cccc(C(F)(F)F)c1)NS(=O)(=O)c1cc(F)c2c(c1)CCNC2)N1CCCC1 [PFI-2]
secretion of GM-CSF [1]: significantly lowered
secretion of GROα [1]: significantly lowered
secretion of IL-6 [1]: significantly lowered
secretion of IL-8 [1]: significantly lowered
secretion of MCP-1 [1]: significantly lowered
neutrophil recruitment / adhesion to activated endothelium [2]: significantly lowered

C[C@@H]1CCN(C(=O)CC#N)C[C@@H]1N(C)c1ncnc2[nH]ccc12 [Tofacitinib]
G-CSF secretion [3, 7]: decrease GM-CSF and G-CSF secretion
GM-CSF secretion [3, 7]: decrease GM-CSF and G-CSF secretion
cilia beating frequency [3, 7]: increase cilia beating frequency
number of goblet cells [3, 7]: decrease the number of goblet cells

IL-13: a protein secreted by immune cells which is found in high quantities in lungs of asthmatics
cilia beating frequency [3, 8]: lower cilia beating frequency
number of goblet cells [3, 8]: higher number of goblet cells
secretion of G-CSF [3, 8]: higher secretion
secretion of GM-CSF [3, 8]: higher secretion

lipopolysaccharides [LPS]
IL8 secretion ([4]; COPD epithelial cells): selectively induced
IL8 secretion ([4]; healthy epithelial cells): without increasing

polyinosinic:polycytidylic acid [poly (I:C)]
release of chemokines (monocyte and neutrophil chemoattractants) ([5]; TLR-3 activation of differentiated airway epithelial cells): stimulates release of chemokines
monocyte adhesion to differentiated epithelial cells ([5]; TLR-3 stimulation): enhances monocyte adhesion
epithelial cells' gene expression of IP-10 ([5]; differentiated epithelial cells with or without poly I:C): significantly increases
E-selectin gene expression in endothelial cells [6]: significant up-regulation
VCAM-1 transcript levels in endothelial cells [6]: higher, but not statistically significant
M-CSF secretion ([4]; COPD epithelial cells): selectively up-regulated
expression of IP-10 [4, 9]: induced in both healthy donor and COPD epithelial cells
expression of RANTES [4, 9]: induced in both healthy donor and COPD epithelial cells
M-CSF secretion ([4]; healthy epithelial cells): no significant change
